From ChEMBL document CHEMBL3396981, “Synthesis and in vitro biological evaluation of 2-(phenylcarbamoyl)phenyl 4-substituted benzoates” (Bioorg Med Chem, 2015)
In brackets after ≈: the same amount, converted by molar mass. Activity calls are given as the source filed them. The rule behind the calls is not given here.

Columns and labels:
[1] = system: Mycobacterium tuberculosis; experiment: Antimycobacterial activity against Mycobacterium tuberculosis H37Rv 331/88 after 14 days by microdilution method; type: functional; settings: H37Rv 331/88, 336 h
[2] = system: Mycobacterium tuberculosis; experiment: Antimycobacterial activity against Mycobacterium tuberculosis H37Rv 331/88 after 21 days by microdilution method; type: functional; settings: H37Rv 331/88, 504 h
Mycobacterium avium [3] = experiment: Antimycobacterial activity against INH,RIF,OFX,EMB-resistant Mycobacterium avium 330/88 after 14 days by microdilution method; type: functional; settings: 330/88, 336 h
Mycobacterium avium [4] = experiment: Antimycobacterial activity against INH,RIF,OFX,EMB-resistant Mycobacterium avium 330/88 after 21 days by microdilution method; type: functional; settings: 330/88, 504 h
Mycobacterium kansasii [5] = experiment: Antimycobacterial activity against Mycobacterium kansasii 235/80 after 7 days by microdilution method; type: functional; settings: 235/80, 168 h
Mycobacterium kansasii [6] = experiment: Antimycobacterial activity against Mycobacterium kansasii 235/80 after 14 days by microdilution method; type: functional; settings: 235/80, 336 h
Mycobacterium kansasii [7] = experiment: Antimycobacterial activity against Mycobacterium kansasii 235/80 after 21 days by microdilution method; type: functional; settings: 235/80, 504 h
Mycobacterium kansasii [8] = experiment: Antimycobacterial activity against Mycobacterium kansasii 6509/96 after 7 days by microdilution method; type: functional; settings: 6509/96, 168 h
Mycobacterium kansasii [9] = experiment: Antimycobacterial activity against Mycobacterium kansasii 6509/96 after 14 days by microdilution method; type: functional; settings: 6509/96, 336 h
Mycobacterium kansasii [10] = experiment: Antimycobacterial activity against Mycobacterium kansasii 6509/96 after 21 days by microdilution method; type: functional; settings: 6509/96, 504 h
Staphylococcus aureus [11] = experiment: Antibacterial activity against Staphylococcus aureus CCM 4516/08 after 24 hrs by broth microdilution method; type: functional; settings: CCM 4516/08, 24 h
Staphylococcus aureus [12] = experiment: Antibacterial activity against Staphylococcus aureus CCM 4516/08 after 48 hrs by broth microdilution method; type: functional; settings: CCM 4516/08, 48 h
Staphylococcus aureus [13] = experiment: Antibacterial activity against methicillin-resistant Staphylococcus aureus H 5996/08 after 24 hrs by broth microdilution method; type: functional; settings: H 5996/08, 24 h
Staphylococcus aureus [14] = experiment: Antibacterial activity against methicillin-resistant Staphylococcus aureus H 5996/08 after 48 hrs by broth microdilution method; type: functional; settings: H 5996/08, 48 h
[15] = system: Staphylococcus epidermidis; experiment: Antibacterial activity against Staphylococcus epidermidis H 6966/08 after 24 hrs by broth microdilution method; type: functional; settings: H 6966/08, 24 h
[16] = system: Staphylococcus epidermidis; experiment: Antibacterial activity against Staphylococcus epidermidis H 6966/08 after 48 hrs by broth microdilution method; type: functional; settings: H 6966/08, 48 h
Enterococcus sp. [17] = experiment: Antibacterial activity against Enterococcus sp. J 14365/08 after 24 hrs by broth microdilution method; type: functional; settings: J 14365/08, 24 h
Enterococcus sp. [18] = experiment: Antibacterial activity against Enterococcus sp. J 14365/08 after 48 hrs by broth microdilution method; type: functional; settings: J 14365/08, 48 h
Trichosporon asahii [19] = experiment: Antifungal activity against Trichosporon asahii 1188 after 24 hrs by broth microdilution method; type: functional; settings: Trichosporon asahii, 1188, 24 h
Trichosporon asahii [20] = experiment: Antifungal activity against Trichosporon asahii 1188 after 48 hrs by broth microdilution method; type: functional; settings: Trichosporon asahii, 1188, 48 h
HepG2 [21] = experiment: Cytostatic activity against human HepG2 cells after 72 hrs by MTT assay; type: functional, cell-based; settings: HepG2, 72 h
HepG2 [22] = experiment: Cytotoxicity against human HepG2 cells after 72 hrs by MTT assay; type: cell-based; settings: HepG2, 72 h
[23] = Selectivity index, ratio of IC50 for human HepG2 cells to MIC for Mycobacterium tuberculosis; type: toxicity, cell-based; settings: read-out: Selectivity Index
[24] = Selectivity index, ratio of IC50 for human HepG2 cells to MIC for atypical mycobacteria
[25] = Selectivity index, ratio of IC50 for human HepG2 cells to MIC for Staphylococcus aureus CCM 4516/08
[26] = Selectivity index, ratio of IC50 for human HepG2 cells to MIC for Staphylococci
Candida albicans = experiment: Antifungal activity against Candida albicans ATCC 44859 after 24 to 48 hrs by broth dilution method; type: functional, organism-based
Candida tropicalis = experiment: Antifungal activity against Candida tropicalis 156 after 24 to 48 hrs by broth dilution method; type: functional, organism-based
Pichia kudriavzevii = experiment: Antifungal activity against Candida krusei E28 after 24 to 48 hrs by broth dilution method; type: functional, organism-based
Nakaseomyces glabratus = experiment: Antifungal activity against Candida glabrata 20/I after 24 to 48 hrs by broth dilution method; type: functional, organism-based
Aspergillus fumigatus = experiment: Antifungal activity against Aspergillus fumigatus 231 after 24 to 48 hrs by broth dilution method; type: functional, organism-based
Lichtheimia corymbifera = experiment: Antifungal activity against Absidia corymbifera 272 after 24 to 48 hrs by broth dilution method; type: functional, organism-based
[27] = system: Trichophyton mentagrophytes; experiment: Antifungal activity against Trichophyton mentagrophytes 445 after 24 to 48 hrs by broth dilution method; type: functional, organism-based

Row | Compound | MIC [1] [µM] | MIC [2] [µM] | MIC (Mycobacterium avium [3]) [µM] | MIC (Mycobacterium avium [4]) [µM] | MIC (Mycobacterium kansasii [5]) [µM] | MIC (Mycobacterium kansasii [6]) [µM] | MIC (Mycobacterium kansasii [7]) [µM] | MIC (Mycobacterium kansasii [8]) [µM] | MIC (Mycobacterium kansasii [9]) [µM] | MIC (Mycobacterium kansasii [10]) [µM] | MIC (Staphylococcus aureus [11]) [µM] | MIC (Staphylococcus aureus [12]) [µM] | MIC (Staphylococcus aureus [13]) [µM] | MIC (Staphylococcus aureus [14]) [µM] | MIC [15] [µM] | MIC [16] [µM] | MIC (Enterococcus sp. [17]) [µM] | MIC (Enterococcus sp. [18]) [µM] | MIC (Trichosporon asahii [19]) [µM] | IC50 (HepG2 [22]) [µM] | also measured
1 | Cc1ccc(C(=O)Oc2ccc(Br)cc2C(=O)Nc2ccc(C(F)(F)F)cc2)cc1 | 1 (≈ 0.478 µg/mL) | 1 (≈ 0.478 µg/mL) | 4 (≈ 1.91 µg/mL) | 8 (≈ 3.83 µg/mL) | 1 (≈ 0.478 µg/mL) | 2 (≈ 0.957 µg/mL) | 2 (≈ 0.957 µg/mL) | 2 (≈ 0.957 µg/mL) | 2 (≈ 0.957 µg/mL) | 4 (≈ 1.91 µg/mL) | > 125 | > 125 | > 125 | > 125 | > 125 | > 125 | > 125 | > 125 | > 125 | > 50 | MIC (Trichosporon asahii [20]): > 125 µM; IC50 (HepG2 [21]): 26.8 µM; selectivity ratio [23]: > 50; Selectivity Index [24]: >6.25
2 | CC1(C)S[C@@H]2[C@H](NC(=O)Cc3ccccc3)C(=O)N2[C@H]1C(=O)O [PENICILLIN G] |  |  |  |  |  |  |  |  |  |  | 0.98 (≈ 0.328 µg/mL) | 0.98 (≈ 0.328 µg/mL) | 62.5 (≈ 20.9 µg/mL) | 125 (≈ 41.8 µg/mL) | 250 (≈ 83.6 µg/mL) | 250 (≈ 83.6 µg/mL) | 7.81 (≈ 2.61 µg/mL) | 15.6 (≈ 5.22 µg/mL) |  | > 10000 | Selectivity Index [25]: >10204
3 | O=C(Oc1ccc(Cl)cc1C(=O)Nc1ccc(Cl)c(Cl)c1)c1ccc([N+](=O)[O-])cc1 | 0.5 (≈ 0.233 µg/mL) | 1 (≈ 0.466 µg/mL) | 8 (≈ 3.73 µg/mL) | 8 (≈ 3.73 µg/mL) | 2 (≈ 0.931 µg/mL) | 4 (≈ 1.86 µg/mL) | 4 (≈ 1.86 µg/mL) | 2 (≈ 0.931 µg/mL) | 4 (≈ 1.86 µg/mL) | 4 (≈ 1.86 µg/mL) | 0.49 (≈ 0.228 µg/mL) | 0.49 (≈ 0.228 µg/mL) | 0.49 (≈ 0.228 µg/mL) | 0.49 (≈ 0.228 µg/mL) | 0.49 (≈ 0.228 µg/mL) | 0.49 (≈ 0.228 µg/mL) | 62.5 (≈ 29.1 µg/mL) | > 125 | 31.2 (≈ 14.6 µg/mL) | > 50 | MIC (Trichosporon asahii [20]): > 125 µM; IC50 (HepG2 [21]): 3.55 µM; selectivity ratio [23]: > 50; Selectivity Index [24]: >6.25; Selectivity Index [26]: >102; Activity (Candida albicans): inactive; Activity (Candida tropicalis): inactive; Activity (Pichia kudriavzevii): inactive; Activity (Nakaseomyces glabratus): inactive; Activity (Aspergillus fumigatus): inactive; Activity (Lichtheimia corymbifera): inactive; Activity [27]: inactive
4 | O=C(Oc1ccc(Cl)cc1C(=O)Nc1ccc(Cl)c(Cl)c1)c1ccc(Br)cc1 | 1 (≈ 0.5 µg/mL) | 1 (≈ 0.5 µg/mL) | 8 (≈ 4 µg/mL) | 8 (≈ 4 µg/mL) | 2 (≈ 0.999 µg/mL) | 4 (≈ 2 µg/mL) | 4 (≈ 2 µg/mL) | 1 (≈ 0.5 µg/mL) | 4 (≈ 2 µg/mL) | 4 (≈ 2 µg/mL) | 0.49 (≈ 0.245 µg/mL) | 0.49 (≈ 0.245 µg/mL) | 0.49 (≈ 0.245 µg/mL) | 0.49 (≈ 0.245 µg/mL) | 0.49 (≈ 0.245 µg/mL) | 0.49 (≈ 0.245 µg/mL) | 31.2 (≈ 15.6 µg/mL) | 500 (≈ 250 µg/mL) | 500 (≈ 250 µg/mL) | > 50 | MIC (Trichosporon asahii [20]): > 500 µM; IC50 (HepG2 [21]): 2.5 µM; selectivity ratio [23]: > 50; Selectivity Index [24]: >6.25; Selectivity Index [26]: >102; Activity (Candida albicans): inactive; Activity (Candida tropicalis): inactive; Activity (Pichia kudriavzevii): inactive; Activity (Nakaseomyces glabratus): inactive; Activity (Aspergillus fumigatus): inactive; Activity (Lichtheimia corymbifera): inactive; Activity [27]: inactive
